Calls of active or inactive are those of the source.
Experiments:
[1] = molecular target: T1, Methionyl-tRNA synthetase, putative (Trypanosoma brucei brucei, UniProt Q38C91); format: functional, Trypanosoma brucei brucei strain 927/4 GUTat10.1
[2] = Counterscreen for inhibitors of Trypanosoma brucei methionyl tRNA synthetase (MetRS): Luminescence-based cell-based high throughput dose response assay to identify compounds that are cytotoxic to Jurkat human T lymphocyte cells.; format: functional
[3] = molecular target: T1, Methionyl-tRNA synthetase, putative; format: functional, Trypanosoma brucei brucei strain 927/4 GUTat10.1; remark: listed apart in the source
[4] = miR-122 activators in hepatoma reporter cells, dose response, cell-based, Huh7 psiCHECK-miR122, Renilla luciferase, cherry-picked (AID 651956); format: functional;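 further: huh7 hepatoma cells stably carrying a psiCHECK-2 miR-122 sensor plasmid; renilla luciferase signal reporting endogenous miR-122 activity after 48 h compound exposure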
[5] = HEK293T cytotoxicity, dose response, cytotoxicity control for miR-122 modulator project, cell-based, inhibitor set, cherry-pick, set 2 (AID 720697); format: functional
[6] = HEK293T cytotoxicity, dose response, cytotoxicity control for miR-122 modulator project, cell-based, activator set, cherry-pick (AID 720690); format: functional;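 further: HEK293T human cells scored for general mammalian cytotoxicity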
[7] = HepG2 cell cytotoxicity, dose response, cytotoxicity control, cherry-picks, set 5 (AID 1053118); format: functional, cell-based
[8] = A549 cell cytotoxicity, dose response, cytotoxicity control, cherry-picks, 26 µM top dose (AID 1053119); format: functional, cell-based
[9] = molecular target: T2, Replicative DNA helicase DnaB (Mycobacterium tuberculosis, UniProt P9WMR3); experiment: DnaB intein splicing inhibitors, dose response, biochemical, cell-free fluorescence (AID 449749); format: functional
T2 sequence (P9WMR3 whole entry): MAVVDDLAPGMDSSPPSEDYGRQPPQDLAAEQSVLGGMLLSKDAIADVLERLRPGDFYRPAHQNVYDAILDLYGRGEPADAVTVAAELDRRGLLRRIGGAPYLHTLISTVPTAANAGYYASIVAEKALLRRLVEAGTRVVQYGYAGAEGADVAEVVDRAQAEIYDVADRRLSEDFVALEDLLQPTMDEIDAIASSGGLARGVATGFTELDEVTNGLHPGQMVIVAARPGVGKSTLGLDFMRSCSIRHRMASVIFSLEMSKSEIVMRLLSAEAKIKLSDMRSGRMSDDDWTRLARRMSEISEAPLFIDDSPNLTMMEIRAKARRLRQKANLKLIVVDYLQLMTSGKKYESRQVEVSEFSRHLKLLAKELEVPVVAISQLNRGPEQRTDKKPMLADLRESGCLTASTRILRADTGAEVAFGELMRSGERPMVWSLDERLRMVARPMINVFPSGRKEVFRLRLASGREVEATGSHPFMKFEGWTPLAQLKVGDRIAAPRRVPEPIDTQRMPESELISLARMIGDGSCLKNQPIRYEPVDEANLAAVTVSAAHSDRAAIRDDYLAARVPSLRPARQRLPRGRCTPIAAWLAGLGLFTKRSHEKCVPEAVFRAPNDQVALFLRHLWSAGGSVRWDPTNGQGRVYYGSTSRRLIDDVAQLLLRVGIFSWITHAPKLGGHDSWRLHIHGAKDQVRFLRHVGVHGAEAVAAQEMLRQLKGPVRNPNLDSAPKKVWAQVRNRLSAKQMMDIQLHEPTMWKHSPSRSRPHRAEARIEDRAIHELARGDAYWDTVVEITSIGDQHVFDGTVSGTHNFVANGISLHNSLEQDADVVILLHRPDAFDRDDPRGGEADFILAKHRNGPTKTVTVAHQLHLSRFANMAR

Protein RecA = molecular target: T3, Protein RecA (Mycobacterium tuberculosis, UniProt P9WHJ3); experiment: Fluorescence Cell-Free Homogeneous Dose Retest to Identify Inhibitors of RecA-Intein Splicing Activity. [Related pubchem assays (depositor defined):AID2097, AID2223, AID489010, AID492950]; format: functional
T3 sequence (P9WHJ3 whole entry): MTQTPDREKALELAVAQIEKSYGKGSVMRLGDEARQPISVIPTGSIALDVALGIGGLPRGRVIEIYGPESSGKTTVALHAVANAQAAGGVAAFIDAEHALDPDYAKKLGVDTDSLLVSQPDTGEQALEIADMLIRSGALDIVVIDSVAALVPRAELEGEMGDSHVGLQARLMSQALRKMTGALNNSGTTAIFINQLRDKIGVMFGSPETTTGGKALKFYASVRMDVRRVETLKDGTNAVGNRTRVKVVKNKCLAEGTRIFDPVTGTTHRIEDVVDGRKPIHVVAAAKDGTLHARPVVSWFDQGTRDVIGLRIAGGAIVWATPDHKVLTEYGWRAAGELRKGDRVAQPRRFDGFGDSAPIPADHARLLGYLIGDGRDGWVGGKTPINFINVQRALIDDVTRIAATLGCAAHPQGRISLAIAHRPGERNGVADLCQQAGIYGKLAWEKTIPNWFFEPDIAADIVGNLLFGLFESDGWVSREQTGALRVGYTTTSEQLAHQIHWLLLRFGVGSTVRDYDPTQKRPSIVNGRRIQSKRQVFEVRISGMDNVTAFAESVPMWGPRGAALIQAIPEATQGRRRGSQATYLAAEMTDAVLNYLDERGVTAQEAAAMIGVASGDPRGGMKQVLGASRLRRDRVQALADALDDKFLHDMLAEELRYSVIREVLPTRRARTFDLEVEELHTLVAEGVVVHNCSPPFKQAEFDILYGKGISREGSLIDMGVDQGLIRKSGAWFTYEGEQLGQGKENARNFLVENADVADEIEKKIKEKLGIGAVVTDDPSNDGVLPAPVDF

[10] = molecular target: T4, Sentrin-specific protease 8 (Homo sapiens, UniProt Q96LD8); format: functional
T4 sequence (Q96LD8 whole entry): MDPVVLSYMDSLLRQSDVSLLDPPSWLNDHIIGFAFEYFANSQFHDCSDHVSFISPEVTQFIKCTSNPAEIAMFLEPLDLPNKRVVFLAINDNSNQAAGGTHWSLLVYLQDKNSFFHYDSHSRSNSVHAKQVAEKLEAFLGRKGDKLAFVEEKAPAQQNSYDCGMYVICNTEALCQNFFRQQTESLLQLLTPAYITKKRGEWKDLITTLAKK

[11] = molecular target: T4, Sentrin-specific protease 8; format: functional; remark: listed apart in the source
cells [12] = format: functional, cell-based
[13] = molecular target: T5, Trace amine-associated receptor 1 (Homo sapiens, UniProt Q96RJ0); experiment: Fluorescence-based cell-based high throughput dose response assay to identify agonists of the human trace amine associated receptor 1 (TAAR1).; format: functional
T5 sequence (Q96RJ0 whole entry): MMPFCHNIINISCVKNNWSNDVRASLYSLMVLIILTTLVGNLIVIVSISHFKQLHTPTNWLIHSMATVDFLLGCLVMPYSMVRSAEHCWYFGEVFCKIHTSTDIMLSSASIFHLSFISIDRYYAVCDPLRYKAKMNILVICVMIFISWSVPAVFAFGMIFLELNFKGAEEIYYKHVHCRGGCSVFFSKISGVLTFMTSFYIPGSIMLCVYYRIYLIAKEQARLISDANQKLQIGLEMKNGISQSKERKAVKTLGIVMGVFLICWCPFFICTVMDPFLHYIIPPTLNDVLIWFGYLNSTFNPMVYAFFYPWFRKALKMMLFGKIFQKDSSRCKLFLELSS

[14] = molecular target: T5, Trace amine-associated receptor 1; experiment: Counterscreen for agonists of the human trace amine associated receptor 1 (hTAAR1): Fluorescence-based cell-based high throughput dose response assay to identify hTAAR1 agonist that also desensitize TAAR1 receptor response.; format: functional
cells [15] = format: functional, cell-based; remark: listed apart in the source
Mu-type opioid receptor = Mu-type opioid receptor (Homo sapiens, UniProt P35372); format: functional, cell-based;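 further: U2OS cells with beta-arrestin recruitment to OPRM1 by beta-gal complementation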
Mu-type opioid receptor, sequence (P35372 whole entry): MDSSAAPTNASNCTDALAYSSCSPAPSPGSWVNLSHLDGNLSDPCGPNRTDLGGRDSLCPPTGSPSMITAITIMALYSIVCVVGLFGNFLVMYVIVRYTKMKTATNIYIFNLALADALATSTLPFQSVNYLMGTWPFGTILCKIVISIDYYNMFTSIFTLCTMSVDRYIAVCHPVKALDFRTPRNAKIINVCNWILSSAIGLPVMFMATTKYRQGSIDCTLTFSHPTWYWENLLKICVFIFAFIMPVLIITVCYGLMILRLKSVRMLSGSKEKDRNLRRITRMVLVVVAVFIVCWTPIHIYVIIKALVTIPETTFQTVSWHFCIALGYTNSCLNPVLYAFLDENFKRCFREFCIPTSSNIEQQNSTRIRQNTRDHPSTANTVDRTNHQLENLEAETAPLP

[16] = molecular target: 5-hydroxytryptamine receptor 2A (Mus musculus, UniProt P35363); format: functional, cell-based;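 further: CHO-K1 cells with tagged receptor and beta-arrestin; agonist potency measured as compound-induced activation of the receptor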
5-hydroxytryptamine receptor 2A, sequence (P35363 whole entry): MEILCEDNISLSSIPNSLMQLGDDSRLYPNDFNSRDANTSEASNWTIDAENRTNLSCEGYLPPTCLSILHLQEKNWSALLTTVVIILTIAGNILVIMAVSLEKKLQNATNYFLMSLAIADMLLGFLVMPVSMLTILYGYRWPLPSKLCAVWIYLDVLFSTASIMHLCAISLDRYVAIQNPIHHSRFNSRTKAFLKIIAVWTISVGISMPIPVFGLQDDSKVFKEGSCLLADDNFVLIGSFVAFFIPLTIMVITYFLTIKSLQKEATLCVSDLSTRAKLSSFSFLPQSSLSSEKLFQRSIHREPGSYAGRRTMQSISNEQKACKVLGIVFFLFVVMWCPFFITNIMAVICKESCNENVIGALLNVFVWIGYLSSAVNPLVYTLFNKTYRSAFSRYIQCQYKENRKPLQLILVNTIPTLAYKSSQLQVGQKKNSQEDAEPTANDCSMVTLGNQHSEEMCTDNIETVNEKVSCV

Beta-lactamase [17] = molecular target: Beta-lactamase (Pseudomonas aeruginosa, UniProt Q79MP6);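 further: biochemical dose-response test of metallo-beta-lactamase enzyme inhibition, read out by epi-absorbance; purified recombinant IMP-1 metallo-beta-lactamase with nitrocefin as substrate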
Beta-lactamase [18] = molecular target: Beta-lactamase (Salmonella choleraesuis (strain SC-B67), UniProt Q5J463)
Beta-lactamase (Salmonella choleraesuis (strain SC-B67), UniProt Q5J463), sequence (Q5J463 whole entry): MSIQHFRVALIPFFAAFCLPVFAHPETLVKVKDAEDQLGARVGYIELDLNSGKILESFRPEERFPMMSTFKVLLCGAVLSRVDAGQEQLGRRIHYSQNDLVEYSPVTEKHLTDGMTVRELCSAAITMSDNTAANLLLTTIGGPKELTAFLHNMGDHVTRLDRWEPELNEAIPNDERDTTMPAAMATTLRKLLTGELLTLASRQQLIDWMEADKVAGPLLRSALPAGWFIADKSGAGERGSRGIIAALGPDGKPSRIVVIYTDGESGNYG

HeLa = experiment: HeLa cell cytotoxicity, dose response, cytotoxicity control, ATP luminescence, cherry-pick samples (AID 687004); format: functional, cell-based; settings: Homo sapiens
Protein Wnt-3a = Protein Wnt-3a (Mus musculus, UniProt P27467); experiment: SAR analysis of small molecule antagonists of Gli-SUFU in a Wnt3a luminescent reporter assay.; format: functional
Protein Wnt-3a, sequence (P27467 whole entry): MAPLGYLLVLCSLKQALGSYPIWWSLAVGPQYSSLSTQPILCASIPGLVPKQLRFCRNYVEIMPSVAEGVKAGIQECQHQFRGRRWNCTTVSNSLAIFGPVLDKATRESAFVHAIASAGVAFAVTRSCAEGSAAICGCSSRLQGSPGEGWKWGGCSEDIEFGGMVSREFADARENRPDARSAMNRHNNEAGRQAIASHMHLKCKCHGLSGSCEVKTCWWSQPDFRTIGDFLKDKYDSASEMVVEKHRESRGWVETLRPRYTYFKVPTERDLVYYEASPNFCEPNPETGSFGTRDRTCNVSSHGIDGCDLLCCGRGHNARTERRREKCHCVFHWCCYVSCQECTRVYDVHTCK

[19] = molecular target: T6, Botulinum neurotoxin type A (Clostridium botulinum (strain Hall / ATCC 3502 / NCTC 13319 / Type A), UniProt P0DPI1); experiment: High-throughput multiplex microsphere dose response for inhibitors of toxin protease, specifically Botulinum neurotoxin light chain A protease, compounds from Powder Set 01.; format: functional, Clostridium botulinum A str. ATCC 3502; settings: read-out: EC50_MICROM
T6 sequence (P0DPI1 2-448 limits assumed): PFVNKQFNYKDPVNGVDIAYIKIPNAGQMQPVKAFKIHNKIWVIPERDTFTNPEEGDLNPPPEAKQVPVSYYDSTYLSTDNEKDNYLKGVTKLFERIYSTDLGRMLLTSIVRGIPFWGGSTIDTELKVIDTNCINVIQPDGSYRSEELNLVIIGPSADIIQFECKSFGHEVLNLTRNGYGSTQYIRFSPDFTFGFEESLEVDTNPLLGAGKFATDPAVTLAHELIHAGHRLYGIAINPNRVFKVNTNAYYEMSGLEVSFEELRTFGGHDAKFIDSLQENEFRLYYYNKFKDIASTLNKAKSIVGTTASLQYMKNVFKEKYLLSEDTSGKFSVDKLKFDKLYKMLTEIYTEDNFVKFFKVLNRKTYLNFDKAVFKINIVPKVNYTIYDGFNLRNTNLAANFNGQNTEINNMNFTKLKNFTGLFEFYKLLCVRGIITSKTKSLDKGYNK

[20] = molecular target: Botulinum neurotoxin type F (Clostridium botulinum, UniProt P30996); experiment: High-throughput multiplex microsphere dose response for inhibitors of toxin protease, specifically Botulinum neurotoxin light chain F protease, compounds from Powder Set 01.; format: functional, Clostridium botulinum Bf; settings: read-out: EC50_MICROM
Botulinum neurotoxin type F, sequence (P30996 1-436 limits assumed): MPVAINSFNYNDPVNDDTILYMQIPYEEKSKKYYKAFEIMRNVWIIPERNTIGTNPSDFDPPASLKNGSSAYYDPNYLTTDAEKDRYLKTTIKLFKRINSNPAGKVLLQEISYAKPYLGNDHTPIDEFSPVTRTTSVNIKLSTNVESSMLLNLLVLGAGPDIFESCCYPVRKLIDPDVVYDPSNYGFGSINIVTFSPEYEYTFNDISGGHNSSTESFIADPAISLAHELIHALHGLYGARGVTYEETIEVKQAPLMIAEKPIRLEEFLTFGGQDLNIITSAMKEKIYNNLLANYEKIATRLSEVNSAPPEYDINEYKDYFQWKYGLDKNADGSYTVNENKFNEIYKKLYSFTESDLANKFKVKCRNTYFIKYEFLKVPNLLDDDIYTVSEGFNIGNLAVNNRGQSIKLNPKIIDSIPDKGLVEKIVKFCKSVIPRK

Lethal factor = Lethal factor (Bacillus anthracis, UniProt P15917); experiment: High-throughput multiplex microsphere dose response for inhibitors of toxin protease, specifically Lethal Factor protease, compounds from Powder Set 01.; format: functional, Bacillus anthracis str. A2012; settings: read-out: EC50_MICROM
Lethal factor, sequence (P15917 whole entry): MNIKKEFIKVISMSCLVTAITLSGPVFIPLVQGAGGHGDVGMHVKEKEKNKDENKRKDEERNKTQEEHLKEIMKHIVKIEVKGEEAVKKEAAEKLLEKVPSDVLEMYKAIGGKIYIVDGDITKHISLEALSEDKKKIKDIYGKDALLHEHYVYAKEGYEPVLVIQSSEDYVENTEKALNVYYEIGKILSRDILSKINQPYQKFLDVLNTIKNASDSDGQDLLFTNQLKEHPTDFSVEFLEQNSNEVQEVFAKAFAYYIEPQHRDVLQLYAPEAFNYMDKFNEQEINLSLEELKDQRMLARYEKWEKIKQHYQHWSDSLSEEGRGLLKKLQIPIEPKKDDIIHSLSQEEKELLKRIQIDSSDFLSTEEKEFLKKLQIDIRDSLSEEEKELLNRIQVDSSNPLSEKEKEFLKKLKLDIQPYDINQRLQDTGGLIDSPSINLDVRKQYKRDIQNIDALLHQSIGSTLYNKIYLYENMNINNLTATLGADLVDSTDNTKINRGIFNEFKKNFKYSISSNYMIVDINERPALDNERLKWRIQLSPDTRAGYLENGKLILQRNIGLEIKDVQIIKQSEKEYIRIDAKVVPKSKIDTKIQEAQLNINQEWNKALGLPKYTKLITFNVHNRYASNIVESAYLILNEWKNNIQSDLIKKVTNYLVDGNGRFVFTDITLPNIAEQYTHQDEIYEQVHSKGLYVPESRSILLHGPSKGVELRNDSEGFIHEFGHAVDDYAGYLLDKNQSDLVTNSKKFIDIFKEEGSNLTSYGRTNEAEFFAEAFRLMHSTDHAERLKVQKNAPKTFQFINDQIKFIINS

[21] = molecular target: T6, Botulinum neurotoxin type A; experiment: Confirmatory FRET assay using full length substrates for Botulinum neurotoxin light chain A protease, with Powder Set01.; format: functional
[22] = molecular target: T7, RNA-binding protein pos-1 (Caenorhabditis elegans, UniProt G5EF15); experiment: inhibitors of POS-1/mex-3 RNA binding, dose response, biochemical, fluorescence polarization (AID 1964);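 further: purified POS-1 fused to maltose binding protein made in E. coli; potency of compounds blocking POS-1 binding to fluorescent RNA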
T7 sequence (G5EF15 whole entry): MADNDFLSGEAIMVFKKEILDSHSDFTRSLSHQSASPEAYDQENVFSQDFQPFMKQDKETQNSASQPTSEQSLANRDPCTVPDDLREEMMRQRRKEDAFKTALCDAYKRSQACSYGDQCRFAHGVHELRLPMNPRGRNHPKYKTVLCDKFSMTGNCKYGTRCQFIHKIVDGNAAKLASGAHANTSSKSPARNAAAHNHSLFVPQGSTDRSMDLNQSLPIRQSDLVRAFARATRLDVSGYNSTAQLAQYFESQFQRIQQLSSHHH

[23] = molecular target: T8, Zinc finger protein mex-5 (Caenorhabditis elegans, UniProt Q9XUB2); experiment: MEX-5/TCR-2 RNA interaction inhibitors, dose response, biochemical, C. elegans, fluorescence polarization (AID 1960)
T8 sequence (Q9XUB2 whole entry): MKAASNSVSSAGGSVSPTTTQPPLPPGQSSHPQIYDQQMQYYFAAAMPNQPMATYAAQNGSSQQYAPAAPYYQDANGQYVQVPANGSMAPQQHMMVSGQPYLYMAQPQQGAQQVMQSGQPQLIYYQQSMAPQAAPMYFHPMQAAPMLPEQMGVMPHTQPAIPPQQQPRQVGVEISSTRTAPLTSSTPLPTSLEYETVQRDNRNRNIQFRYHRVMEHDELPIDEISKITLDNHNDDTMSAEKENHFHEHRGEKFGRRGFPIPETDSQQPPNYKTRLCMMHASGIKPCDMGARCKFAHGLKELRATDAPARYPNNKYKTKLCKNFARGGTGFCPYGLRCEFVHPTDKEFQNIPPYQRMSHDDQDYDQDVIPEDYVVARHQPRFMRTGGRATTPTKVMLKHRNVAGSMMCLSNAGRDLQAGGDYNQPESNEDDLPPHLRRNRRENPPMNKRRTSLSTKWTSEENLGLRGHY

[24] = molecular target: Long-chain-fatty-acid--AMP ligase FadD28 (Mycobacterium tuberculosis, UniProt P9WQ59); experiment: Fluorescence polarization aasay to screen for inhibitors that compete for the binding of FadD28 to a bisubstrate Measured in Biochemical System Using Plate Reader - 2147-01_Inhibitor_Dose_CherryPick_Activity.; format: functional, Mycobacterium tuberculosis H37Rv
Long-chain-fatty-acid--AMP ligase FadD28, sequence (P9WQ59 whole entry): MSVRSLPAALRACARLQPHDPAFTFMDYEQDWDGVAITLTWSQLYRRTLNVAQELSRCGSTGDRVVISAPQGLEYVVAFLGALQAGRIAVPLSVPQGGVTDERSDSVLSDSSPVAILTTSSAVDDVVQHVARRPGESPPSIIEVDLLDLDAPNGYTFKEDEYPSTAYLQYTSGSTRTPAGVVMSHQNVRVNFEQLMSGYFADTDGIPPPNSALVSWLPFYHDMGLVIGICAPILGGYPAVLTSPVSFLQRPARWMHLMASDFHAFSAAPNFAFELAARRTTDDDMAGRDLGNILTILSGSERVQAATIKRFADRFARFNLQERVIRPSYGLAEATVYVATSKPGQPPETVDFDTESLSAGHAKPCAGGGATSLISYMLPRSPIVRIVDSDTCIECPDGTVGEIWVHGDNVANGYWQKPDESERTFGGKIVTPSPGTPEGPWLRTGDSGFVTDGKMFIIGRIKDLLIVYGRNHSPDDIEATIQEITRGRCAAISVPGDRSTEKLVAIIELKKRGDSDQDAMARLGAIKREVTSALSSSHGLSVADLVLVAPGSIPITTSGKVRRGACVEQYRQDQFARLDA

[25] = molecular target: T9, Rac GTPase-activating protein 1 (Homo sapiens, UniProt Q9H0H5); experiment: MgcRacGAP GTPase-activating activity inhibitors, confirmation, biochemical, ADP Hunter fluorescence, primary and confirmatory (AID 624330); format: functional
T9 sequence (Q9H0H5 whole entry): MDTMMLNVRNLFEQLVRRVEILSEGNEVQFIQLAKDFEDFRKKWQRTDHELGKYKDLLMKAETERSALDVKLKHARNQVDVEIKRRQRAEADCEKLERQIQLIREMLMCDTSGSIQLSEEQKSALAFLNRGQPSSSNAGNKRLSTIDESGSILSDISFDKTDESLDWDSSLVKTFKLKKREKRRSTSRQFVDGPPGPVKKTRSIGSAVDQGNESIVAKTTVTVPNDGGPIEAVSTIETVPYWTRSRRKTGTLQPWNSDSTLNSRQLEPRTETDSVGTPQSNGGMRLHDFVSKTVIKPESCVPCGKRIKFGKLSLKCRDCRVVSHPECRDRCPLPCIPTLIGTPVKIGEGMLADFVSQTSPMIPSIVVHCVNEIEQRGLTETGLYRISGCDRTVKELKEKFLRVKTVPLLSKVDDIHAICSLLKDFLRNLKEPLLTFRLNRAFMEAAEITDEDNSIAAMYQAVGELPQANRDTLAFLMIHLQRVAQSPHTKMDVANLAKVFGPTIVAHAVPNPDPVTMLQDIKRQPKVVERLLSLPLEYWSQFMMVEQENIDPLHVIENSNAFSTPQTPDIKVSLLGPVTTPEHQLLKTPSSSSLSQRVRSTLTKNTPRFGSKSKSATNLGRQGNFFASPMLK

T1 sequence (Q38C91 whole entry): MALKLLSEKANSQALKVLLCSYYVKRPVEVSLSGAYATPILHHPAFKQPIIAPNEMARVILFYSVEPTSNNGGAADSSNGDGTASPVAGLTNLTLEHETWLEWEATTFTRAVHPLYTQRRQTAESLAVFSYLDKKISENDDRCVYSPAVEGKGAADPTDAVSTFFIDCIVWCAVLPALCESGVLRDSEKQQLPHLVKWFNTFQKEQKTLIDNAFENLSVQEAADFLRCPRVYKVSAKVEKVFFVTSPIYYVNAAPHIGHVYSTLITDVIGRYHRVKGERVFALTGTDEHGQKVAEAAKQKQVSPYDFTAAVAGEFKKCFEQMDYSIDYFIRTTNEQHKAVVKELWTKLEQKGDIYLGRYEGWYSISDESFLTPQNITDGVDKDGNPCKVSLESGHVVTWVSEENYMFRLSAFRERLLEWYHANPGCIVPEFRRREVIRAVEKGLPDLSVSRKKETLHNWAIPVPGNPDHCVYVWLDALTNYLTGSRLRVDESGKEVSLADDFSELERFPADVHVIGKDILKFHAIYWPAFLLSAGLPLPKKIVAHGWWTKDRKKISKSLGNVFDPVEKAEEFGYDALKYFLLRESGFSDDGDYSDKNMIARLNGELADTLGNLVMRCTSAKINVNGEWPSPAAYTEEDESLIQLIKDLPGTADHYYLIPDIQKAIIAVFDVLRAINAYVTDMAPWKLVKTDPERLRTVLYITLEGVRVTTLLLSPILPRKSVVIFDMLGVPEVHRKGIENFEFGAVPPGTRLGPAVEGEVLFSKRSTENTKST

O=C(Nc1ccccc1)Nc1nnc(CSCc2ccccc2Cl)s1
IC50 [1]: 46.7 µM (inactive)
IC50 [2]: 27.7 µM (inactive)
IC50 [3]: 6.26 µM (active)

C[C@@H]1CN([C@@H](C)CO)C(=O)Cc2cc(NC(=O)c3ccncc3)ccc2O[C@H]1CN(C)Cc1ccc(-c2ccccc2)cc1
AC50 [4]: 4.94 µM (active)
AC50 [5]: 15.9 µM (active)
AC50 [6]: 23.6 µM (active)

O=C(c1cccnc1)N1C[C@@H]2[C@H](c3ccccc31)[C@@H](CO)N2CC1CCCC1
AC50 [7]: > 52 µM (inactive)
AC50 [8]: > 52 µM (inactive)

COC(=O)CCCC1=CC2=C(c3ccccc3)C(=O)C(C)(OC(=O)C3CCCC3)C(=O)C2=CN1CCCCO (stereo not given)
AC50 [9]: 68.9 µM (active)
EC50 (Protein RecA): 18.4 µM (active)
IC50 [10]: 6.43 µM (active)
IC50 [11]: 2.93 µM (active)

O=C(C(=O)N1CCc2ccccc2C1)c1cn(CC(=O)N2CCCCC2)c2ccccc12
IC50 (cells [12]): > 29.9 µM (inactive)
EC50 [13]: 0.879 µM (active)
IC50 [14]: 3.57 µM (active)
EC50 (cells [15]): > 29.9 µM (inactive)

Clc1ccc(CN2CCN(c3ncccn3)CC2)cc1
EC50 (Mu-type opioid receptor): 92.5 µM (inactive)
EC50 [16]: 0.153 µM (active)

COc1ccc(-c2occ(C(=O)O)c2C(=O)O)cc1
IC50 (Beta-lactamase [17]): 23.5 µM (inactive)
IC50 (Beta-lactamase [18]): > 59.6 µM (inactive)

C[C@@H]1CN([C@@H](C)CO)C(=O)c2cc(NS(=O)(=O)c3cn(C)cn3)ccc2O[C@@H](C)CCCCO[C@@H]1CN(C)Cc1ccc(C(F)(F)F)cc1
AC50 (HeLa): 13 µM (active)

CC(C)Nc1cc(NC(=O)c2ccccc2)ncn1
IC50 (Protein Wnt-3a): > 21.8 µM (inactive)

Clc1ccc(-c2cn3nc(-c4ccccc4)c(-c4ccccc4)nc3n2)cc1
EC50 [19]: 1 µM (active)
EC50 [20]: 7.4 µM (active)
EC50 (Lethal factor): 1.6 µM (active)
EC50 [21]: 2.4 µM (active)

O=C(CNS(=O)(=O)c1ccc([N+](=O)[O-])cc1)N/N=C/c1ccc(O)cc1O
EC50 [22]: 8.98 µM (active)
EC50 [23]: 8.33 µM (active)
AC50 [24]: 9.67 µM (active)
IC50 [25]: 128 µM (active)

— ChEMBL document CHEMBL1201862, “PubChem BioAssay data set” (2004)
